Source: US11446287B2, “Compounds and methods for EP300 or CBP modulation and indications therefor” (Opna Immuno-Oncology SA, priority 2019, dated 2022)

molecular target: T1, Recombinant human CBP containing the bromodomain (CBP-BD (1043-1159)) (Homo sapiens, UniProt Q92793); assay: CBP Alphascreen binding assay; conditions: read-out: CREBBP (CBP) IC50
T1 construct: Recombinant human CBP bromodomain (CBP-BD (1043-1159)); made in house; host or cells: E. coli BL21-CodonPlus (DE3), modified pET vector
T1 sequence (Q92793 1081-1197): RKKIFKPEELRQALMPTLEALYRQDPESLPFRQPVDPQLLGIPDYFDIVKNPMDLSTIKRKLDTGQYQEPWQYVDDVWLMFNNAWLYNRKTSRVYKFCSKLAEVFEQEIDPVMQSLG
Procedure, shortened: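 Buffer: 50 mM HEPES pH 7.5, 50 mM NaCl, 0.01% BSA, 0.01% Triton X-100, 2 mM DTT. The signal was normalised to plate controls and fitted with a four-parameter curve to give IC50.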

Cc1noc(C)c1-c1cnc2c(c1)c(-c1ccc(C(=O)O)cc1OC(F)(F)F)cn2-c1cncnc1 [P-0319, 4-(5-(3,5-dimethylisoxazol-4-yl)-1-(pyrimidin-5-yl)-1H-pyrrolo[2,3-b]pyridin-3-yl)-3-(trifluoromethoxy)benzoic acid] and Cc1noc(C)c1-c1cnc2c(c1)c(-c1ccc(C(=O)O)cc1OC(F)(F)F)cn2-c1cnc(N(C)C)nc1 [P-0321] fall in the same range of IC50: 0.1 to 1000 nM for the first, 0.1 to 1000 nM for the second.

Cc1noc(C)c1-c1cnc2c(c1)c(-c1ccc(C(C)(C)C(=O)O)cc1)cn2C(c1ccccn1)C1CCCC1 (stereo not drawn) [P-0032, 2-(4-(1-(cyclopentyl(pyridin-2-yl)methyl)-5-(3,5-dimethylisoxazol-4-yl)-1H-pyrrolo[2,3-b]pyridin-3-yl)phenyl)-2-methylpropanoic acid] and Cc1noc(C)c1-c1cnc2c(c1)c(-c1ccc(C(F)(F)C(=O)O)cc1)cn2C(c1ccccn1)C1CCCC1 (stereo not drawn) [P-0034, 2-(4-(1-(cyclopentyl(pyridin-2-yl)methyl)-5-(3,5-dimethylisoxazol-4-yl)-1H-pyrrolo[2,3-b]pyridin-3-yl)phenyl)-2,2-difluoroacetic acid] fall in the same range of IC50: 0.1 to 1000 nM for the first, 0.1 to 1000 nM for the second.

Cc1noc(C)c1-c1cnc2c(c1)c(-c1ccc(C(=O)O)cc1OC1CCC1)cn2[C@H]1CCOC1 [P-0350, (S)-3-cyclobutoxy-4-(5-(3,5-dimethylisoxazol-4-yl)-1-(tetrahydrofuran-3-yl)-1H-pyrrolo[2,3-b]pyridin-3-yl)benzoic acid] and Cc1noc(C)c1-c1cnc2c(c1)c(-c1c(Cl)cc(C(=O)O)cc1OC1CCC1)cn2C1CCOCC1 [P-0358, 3-chloro-5-cyclobutoxy-4-(5-(3,5-dimethylisoxazol-4-yl)-1-(tetrahydro-2H-pyran-4-yl)-1H-pyrrolo[2,3-b]pyridin-3-yl)benzoic acid] fall in the same range of IC50: 0.1 to 1000 nM for the first, 0.1 to 1000 nM for the second.

First: Cc1noc(C)c1-c1cnc2c(c1)c(-c1ccc(CC(=O)O)cc1)cn2C(c1ccccn1)C1CCCC1 (stereo not drawn) [P-0031, 2-(4-(1-(cyclopentyl(pyridin-2-yl)methyl)-5-(3,5-dimethylisoxazol-4-yl)-1H-pyrrolo[2,3-b]pyridin-3-yl)phenyl)acetic acid]
Second: Cc1noc(C)c1-c1cnc2c(c1)c(-c1ccc(C(=O)O)c(O)c1)cn2C(c1ccccn1)C1CCCC1 (stereo not drawn) [P-0030, 4-(1-(cyclopentyl(pyridin-2-yl)methyl)-5-(3,5-dimethylisoxazol-4-yl)-1H-pyrrolo[2,3-b]pyridin-3-yl)-2-hydroxybenzoic acid]
The IC50 of the first is lower: 0.1 to 1000 nM for the first, 1000 to 8000 nM for the second.

COc1ncccc1-n1cc(-c2ccc(C(=O)O)cc2OC(F)(F)F)c2cc(-c3c(C)noc3C)cnc21 [P-0316, 4-(5-(3,5-dimethylisoxazol-4-yl)-1-(2-methoxypyridin-3-yl)-1H-pyrrolo[2,3-b]pyridin-3-yl)-3-(trifluoromethoxy)benzoic acid] and Cc1noc(C)c1-c1cnc2c(c1)c(-c1ccc(C(=O)O)cc1OC(F)(F)F)c(C)n2-c1ncccc1C#N [P-0345, 4-(1-(3-cyanopyridin-2-yl)-5-(3,5-dimethylisoxazol-4-yl)-2-methyl-1H-pyrrolo[2,3-b]pyridin-3-yl)-3-(trifluoromethoxy)benzoic acid] fall in the same range of IC50: 0.1 to 1000 nM for the first, 0.1 to 1000 nM for the second.

Cc1noc(C)c1-c1cnc2c(c1)c(-c1ccc(C(=O)O)cc1OC(F)(F)F)c(C)n2C(C1CC1)C1CC1 [P-0343, 4-(1-(dicyclopropylmethyl)-5-(3,5-dimethylisoxazol-4-yl)-2-methyl-1H-pyrrolo[2,3-b]pyridin-3-yl)-3-(trifluoromethoxy)benzoic acid] and Cc1noc(C)c1-c1cnc2c(c1)c(-c1ccc(C(=O)O)cc1OC(F)(F)F)cn2C1CCC1 [P-0378, 4-(1-cyclobutyl-5-(3,5-dimethylisoxazol-4-yl)-1H-pyrrolo[2,3-b]pyridin-3-yl)-3-(trifluoromethoxy)benzoic acid] fall in the same range of IC50: 0.1 to 1000 nM for the first, 0.1 to 1000 nM for the second.

Cc1noc(C)c1-c1cnc2c(c1)c(-c1c(Cl)cc(C(=O)O)cc1OC(F)(F)F)cn2[C@H]1CCOC1 [P-0346, (S)-3-chloro-4-(5-(3,5-dimethylisoxazol-4-yl)-1-(tetrahydrofuran-3-yl)-1H-pyrrolo[2,3-b]pyridin-3-yl)-5-(trifluoromethoxy)benzoic acid] and Cc1noc(C)c1-c1cnc2c(c1)c(-c1c(Cl)cc(C(=O)O)cc1OCC(F)F)cn2[C@H]1CCOC1 [P-0333, (S)-3-chloro-5-(2,2-difluoroethoxy)-4-(5-(3,5-dimethylisoxazol-4-yl)-1-(tetrahydrofuran-3-yl)-1H-pyrrolo[2,3-b]pyridin-3-yl)benzoic acid] fall in the same range of IC50: 0.1 to 1000 nM for the first, 0.1 to 1000 nM for the second.

Cc1noc(C)c1-c1cnc2c(c1)c(-c1c(Cl)cc(C(=O)O)cc1OC(C)C)cn2C1CCOCC1 [P-0372, 3-chloro-4-(5-(3,5-dimethylisoxazol-4-yl)-1-(tetrahydro-2H-pyran-4-yl)-1H-pyrrolo[2,3-b]pyridin-3-yl)-5-isopropoxybenzoic acid] and Cc1noc(C)c1-c1cnc2c(c1)c(-c1c(Cl)cc(C(=O)O)cc1OCC(F)F)cn2C1CCOCC1 [P-0359, 3-chloro-5-(2,2-difluoroethoxy)-4-(5-(3,5-dimethylisoxazol-4-yl)-1-(tetrahydro-2H-pyran-4-yl)-1H-pyrrolo[2,3-b]pyridin-3-yl)benzoic acid] fall in the same range of IC50: 0.1 to 1000 nM for the first, 0.1 to 1000 nM for the second.

Cc1noc(C)c1-c1cnc2c(c1)c(-c1ccc(C(=O)O)cc1OCC(F)F)cn2-c1cnc(N2CCC2)nc1 [P-0328, 4-(1-(2-(azetidin-1-yl)pyrimidin-5-yl)-5-(3,5-dimethylisoxazol-4-yl)-1H-pyrrolo[2,3-b]pyridin-3-yl)-3-(2,2-difluoroethoxy)benzoic acid] and Cc1noc(C)c1-c1cnc2c(c1)c(-c1c(F)cc(C(=O)O)cc1OCC(F)F)cn2-c1cnc(N2CCC2)nc1 [P-0348, 4-(1-(2-(azetidin-1-yl)pyrimidin-5-yl)-5-(3,5-dimethylisoxazol-4-yl)-1H-pyrrolo[2,3-b]pyridin-3-yl)-3-(2,2-difluoroethoxy)-5-fluorobenzoic acid] fall in the same range of IC50: 0.1 to 1000 nM for the first, 0.1 to 1000 nM for the second.

Cc1noc(C)c1-c1cnc2c(c1)c(-c1c(Cl)cc(C(=O)O)cc1OC1CC1)cn2C1CCOCC1 [P-0381, 3-chloro-5-cyclopropoxy-4-(5-(3,5-dimethylisoxazol-4-yl)-1-(tetrahydro-2H-pyran-4-yl)-1H-pyrrolo[2,3-b]pyridin-3-yl)benzoic acid] and CCOc1cc(C(=O)O)c(F)cc1-c1cn(C2CCOCC2)c2ncc(-c3c(C)noc3C)cc12 [P-0375, 4-(5-(3,5-dimethylisoxazol-4-yl)-1-(tetrahydro-2H-pyran-4-yl)-1H-pyrrolo[2,3-b]pyridin-3-yl)-5-ethoxy-2-fluorobenzoic acid] fall in the same range of IC50: 0.1 to 1000 nM for the first, 0.1 to 1000 nM for the second.

Cc1noc(C)c1-c1cnc2c(c1)c(-c1c(Cl)cc(C(=O)O)cc1OCC(F)F)cn2-c1ccccc1 [P-0332, 3-chloro-5-(2,2-difluoroethoxy)-4-(5-(3,5-dimethylisoxazol-4-yl)-1-phenyl-1H-pyrrolo[2,3-b]pyridin-3-yl)benzoic acid] and Cc1noc(C)c1-c1cnc2c(c1)c(-c1c(Cl)cc(C(=O)O)cc1OCC(F)F)cn2-c1cnc(N2CCC2)nc1 [P-0331, 4-(1-(2-(azetidin-1-yl)pyrimidin-5-yl)-5-(3,5-dimethylisoxazol-4-yl)-1H-pyrrolo[2,3-b]pyridin-3-yl)-3-chloro-5-(2,2-difluoroethoxy)benzoic acid] fall in the same range of IC50: 0.1 to 1000 nM for the first, 0.1 to 1000 nM for the second.

Cc1noc(C)c1-c1cnc2c(c1)c(-c1c(Cl)cc(C(=O)O)cc1OC(F)(F)F)cn2C(C1CCC1)C1CCC1 [P-0380, 3-chloro-4-(1-(dicyclobutylmethyl)-5-(3,5-dimethylisoxazol-4-yl)-1H-pyrrolo[2,3-b]pyridin-3-yl)-5-(trifluoromethoxy)benzoic acid] and Cc1noc(C)c1-c1cnc2c(c1)c(-c1ccc(C(=O)O)cc1Cl)cn2C(c1ccccn1)C1CCCC1 (stereo not drawn) [P-0027, 3-chloro-4-(1-(cyclopentyl(pyridin-2-yl)methyl)-5-(3,5-dimethylisoxazol-4-yl)-1H-pyrrolo[2,3-b]pyridin-3-yl)benzoic acid] fall in the same range of IC50: 0.1 to 1000 nM for the first, 0.1 to 1000 nM for the second.

Cc1noc(C)c1-c1cnc2c(c1)c(-c1ccc(C(=O)O)cc1OC1CCC1)cn2-c1ncccc1C#N [P-0334, 4-(1-(3-cyanopyridin-2-yl)-5-(3,5-dimethylisoxazol-4-yl)-1H-pyrrolo[2,3-b]pyridin-3-yl)-3-cyclobutoxybenzoic acid] and Cc1noc(C)c1-c1cnc2c(c1)c(-c1ccc(C(=O)O)cc1OC(C)C)cn2-c1ncccc1C#N [P-0336, 4-(1-(3-cyanopyridin-2-yl)-5-(3,5-dimethylisoxazol-4-yl)-1H-pyrrolo[2,3-b]pyridin-3-yl)-3-isopropoxybenzoic acid] fall in the same range of IC50: 0.1 to 1000 nM for the first, 0.1 to 1000 nM for the second.

Cc1noc(C)c1-c1cnc2c(c1)c(-c1ccc(C(=O)O)cc1OCC(F)F)cn2-c1cnc(C2CC2)nc1 [P-0387, 4-(1-(2-cyclopropylpyrimidin-5-yl)-5-(3,5-dimethylisoxazol-4-yl)-1H-pyrrolo[2,3-b]pyridin-3-yl)-3-(2,2-difluoroethoxy)benzoic acid] and Cc1nn(C(F)F)cc1-n1cc(-c2ccc(C(=O)O)cc2OCC(F)F)c2cc(-c3c(C)noc3C)cnc21 [P-0349, 3-(2,2-difluoroethoxy)-4-(1-(1-(difluoromethyl)-3-methyl-1H-pyrazol-4-yl)-5-(3,5-dimethylisoxazol-4-yl)-1H-pyrrolo[2,3-b]pyridin-3-yl)benzoic acid] fall in the same range of IC50: 0.1 to 1000 nM for the first, 0.1 to 1000 nM for the second.

Cc1noc(C)c1-c1cnc2c(c1)c(-c1ccc(C(=O)O)cc1OC(F)(F)F)cn2C1(C)CCOC1 (stereo not drawn) [P-0383, 4-(5-(3,5-dimethylisoxazol-4-yl)-1-(3-methyltetrahydrofuran-3-yl)-1H-pyrrolo[2,3-b]pyridin-3-yl)-3-(trifluoromethoxy)benzoic acid] and Cc1cc(-c2cn(C(c3ccccn3)C3CCCC3)c3ncc(-c4c(C)noc4C)cc23)ccc1C(=O)O (stereo not drawn) [P-0028, 4-(1-(cyclopentyl(pyridin-2-yl)methyl)-5-(3,5-dimethylisoxazol-4-yl)-1H-pyrrolo[2,3-b]pyridin-3-yl)-2-methylbenzoic acid] fall in the same range of IC50: 0.1 to 1000 nM for the first, 0.1 to 1000 nM for the second.
